From patent US9399639B2, “Substituted azaindole compounds, salts, pharmaceutical compositions thereof and methods of use” (Calitor Sciences, LLC, priority 2012, dated 2016)

How the values were obtained:
Type in all cases: in vitro ADME
Stability in rat plasma = settings: read-out: Rat T1/2
Method: (§1) Similarly, selected compounds of the invention were also assessed for their stability in human and rat plasma, and the results are listed in Table 3.

[1] = Stability in human plasma; settings: for Human T1/2: 2 μM; for half-life at 2 μM: read-out: Human T1/2
Method: as §1

[2] = Compound stability in human liver microsomes
Method: Human or rat liver microsomes incubations were conducted in duplicate in polypropylene tubes. […] Compounds were dissolved in DMSO and diluted with PBS such that the final concentration of DMSO was 0.05%. The enzymatic reactions were commenced with the addition of protein after a 3 min preincubation and incubated in a water bath open to the air at 37° C. Reactions were terminated at various time points (0, 5, 10, 15, 30, 60 min) by adding equal volume of ice-cold acetonitrile. The samples were stored at −80° C. until LC/MS/MS assays.
The concentrations of compounds in the incubation mixtures of human (or rat) liver microsomes were determined by a LC/MS/MS method. The ranges of the linearity in the concentration range were determined for each tested compounds.
A parallel incubation was performed using denatured microsomes as the negative control, and reactions were terminated at various time points (for example, 0, 15, 60 min) after incubation at 37° C.
Dextromethorphan (70 μM) was selected as the positive control, and reactions were terminated at various time points (0, 5, 10, 15, 30, 60 min) after incubation at 37° C. Both positive and negative control samples were included in each assay to ensure the integrity of the microsomal incubation system.
Alternatively, the stability of some of the compounds disclosed herein in human (or rat) liver microsomes were also conducted in the following protocol. The incubations were conducted in duplicate in polypropylene tubes. […] Compounds were dissolved in DMSO and diluted with K-buffer such that the final concentration of DMSO was 0.2%. The enzymatic reactions were commenced with the addition of 15 μL of NADPH (final concentration: 2 mM) after 10 min preincubation and incubated in a 37° C. incubator. Reactions were terminated at various time points (0, 15, 30, 60 min) by adding 135 μL acetonitrile (contain IS). Protein is removed by centrifugation with 4,000 rpm, 10 min.
In the above protocol, ketanserin (1 μM) was selected as the positive control, and reactions were terminated at various time points (0, 15, 30, 60 min) after incubation at 37° C. The positive control sample was included in each assay to ensure the integrity of the microsomal incubation system.
The concentrations of compounds in liver microsome incubations were plotted as a percentage of the relevant zero time point control for each reaction. The in vivo CLint were extrapolated (ref: Naritomi et al., Prediction of human hepatic clearance from in vivo animal experiments and in vitro metabolic studies with liver microsomes from animals and humans, Drug Metab. Dispos., 2001, 29: 1316-1324.) […]

With `CCCS(=O)(=O)Nc1ccc(F)c(C(=O)c2cn(C(OC(=O)C(C)C)C(C)C)c3ncc(-c4ccc(Cl)cc4)cc23)c1F` (stereo not shown) [Ex. 16, 1-(5-(4-chlorophenyl)-3-(2,6-difluoro-3-(propylsulfonamido)benzoyl)-1H-pyrrolo[2,3-b]pyridin-1-yl)-2-methylpropyl isobutyrate] the half-life at 2 μM (Stability in rat plasma) was 157 min and the “Human T1/2” value [1] was “∞”.

A half-life at 2 μM (Stability in rat plasma) of 28.6 min and a half-life at 2 μM [1] of 113 min were found for `CCCS(=O)(=O)Nc1ccc(F)c(C(=O)c2cn(COC(=O)C(C)C)c3ncc(-c4ccc(Cl)cc4)cc23)c1F` [Ex. 9, (5-(4-chlorophenyl)-3-(2,6-difluoro-3-(propylsulfonamido)benzoyl)-1H-pyrrolo[2,3-b]pyridin-1-yl)methyl isobutyrate] in this work.

A half-life at 2 μM (Stability in rat plasma) of 55.8 min and a half-life at 2 μM [1] of 88.1 min were found for `CCCS(=O)(=O)Nc1ccc(F)c(C(=O)c2cn(C(C)OC(=O)CC)c3ncc(-c4ccc(Cl)cc4)cc23)c1F` (stereo not shown) [Ex. 10, 1-(5-(4-chlorophenyl)-3-(2,6-difluoro-3-(propylsulfonamido)benzoyl)-1H-pyrrolo[2,3-b]pyridin-1-yl)ethyl propionate] in this work.

A half-life at 2 μM (Stability in rat plasma) of 49.5 min and a half-life at 2 μM [1] of 57.9 min were found for `CCCS(=O)(=O)Nc1ccc(F)c(C(=O)c2cn(C(C)OC(=O)OCC)c3ncc(-c4ccc(Cl)cc4)cc23)c1F` (stereo not shown) [Ex. 28, 1-(5-(4-chlorophenyl)-3-(2,6-difluoro-3-(propylsulfonamido)benzoyl)-1H-pyrrolo[2,3-b]pyridin-1-yl)ethyl ethyl carbonate] in this work.

A half-life at 2 μM [1] of 81.6 min was found for `CCCS(=O)(=O)Nc1ccc(F)c(C(=O)c2cn(COC(=O)OCC)c3ncc(-c4ccc(Cl)cc4)cc23)c1F` [Ex. 26, (5-(4-chlorophenyl)-3-(2,6-difluoro-3-(propylsulfonamido)benzoyl)-1H-pyrrolo[2,3-b]pyridin-1-yl)methyl ethyl carbonate] in this work.

A half-life at 2 μM (Stability in rat plasma) of 5.9 min and a half-life at 2 μM [1] of 7.47 min were found for `CCCS(=O)(=O)Nc1ccc(F)c(C(=O)c2cn(COC(=O)CN)c3ncc(-c4ccc(Cl)cc4)cc23)c1F.Cl` [Ex. 19, (5-(4-chlorophenyl)-3-(2,6-difluoro-3-(propylsulfonamido)benzoyl)-1H-pyrrolo[2,3-b]pyridin-1-yl)methyl 2-aminoacetate hydrochloride] in this work.

With `CCCS(=O)(=O)Nc1ccc(F)c(C(=O)c2cn(C(C)OC(=O)OC(C)C)c3ncc(-c4ccc(Cl)cc4)cc23)c1F` (stereo not shown) [Ex. 30, 1-(5-(4-chlorophenyl)-3-(2,6-difluoro-3-(propylsulfonamido)benzoyl)-1H-pyrrolo[2,3-b]pyridin-1-yl)ethyl isopropyl carbonate] the half-life at 2 μM (Stability in rat plasma) was 56.3 min and the “Human T1/2” value [1] was “∞”.

A half-life at 2 μM (Stability in rat plasma) of 49.8 min and a half-life at 2 μM [1] of 162 min were found for `CCCS(=O)(=O)Nc1ccc(F)c(C(=O)c2cn(C(OC(=O)CC)C(C)C)c3ncc(-c4ccc(Cl)cc4)cc23)c1F` (stereo not shown) [Ex. 11, 1-(5-(4-chlorophenyl)-3-(2,6-difluoro-3-(propylsulfonamido)benzoyl)-1H-pyrrolo[2,3-b]pyridin-1-yl)-2-methylpropyl propionate] in this work.

A half-life at 2 μM (Stability in rat plasma) of 55.9 min and a half-life at 2 μM [1] of 79.6 min were found for `CCCS(=O)(=O)Nc1ccc(F)c(C(=O)c2cn(COC(=O)OC(C)C)c3ncc(-c4ccc(Cl)cc4)cc23)c1F` [Ex. 27, (5-(4-chlorophenyl)-3-(2,6-difluoro-3-(propylsulfonamido)benzoyl)-1H-pyrrolo[2,3-b]pyridin-1-yl)methyl isopropyl carbonate] in this work.

A half-life at 2 μM (Stability in rat plasma) of 18.6 min and a half-life at 2 μM [1] of 39.6 min were found for `CCCS(=O)(=O)Nc1ccc(F)c(C(=O)c2cn(COC(=O)CC)c3ncc(-c4ccc(Cl)cc4)cc23)c1F` [Ex. 15, (5-(4-chlorophenyl)-3-(2,6-difluoro-3-(propylsulfonamido)benzoyl)-1H-pyrrolo[2,3-b]pyridin-1-yl)methyl propionate] in this work.

A half-life at 2 μM [1] of 511 min, a CLint scaled at 1 μM ([2]; pH 7.4, in vivo CLint extrapolated) of 51.7 mL/min/kg and a half-life at 1 μM ([2]; pH 7.4, read-out: Human T1/2) of 33.6 min were found for `CCCS(=O)(=O)Nc1ccc(F)c(C(=O)c2cn(C(C)OC(=O)C(C)C)c3ncc(-c4ccc(Cl)cc4)cc23)c1F` (stereo not shown) [Ex. 14, 1-(5-(4-chlorophenyl)-3-(2,6-difluoro-3-(propylsulfonamido)benzoyl)-1H-pyrrolo[2,3-b]pyridin-1-yl)ethyl isobutyrate] in this work.
